# Source: US6133249A, “Phospholipid and propylene glycol based lubricant” (MacNaught Medical Pty Limited, priority 1995, dated 2000)
# Assays:
# [1] = Inflammatory reaction of horse joints (protein, ALP, leucocyte count, specific gravity); assay type: in vivo; conditions: 1 ml PG only, 6 horses
# Protocol: 5. Having established the extreme lubricity imparted by exogenous DPPC and the fact that it is likely to remain in the joint for long enough to be worthwhile clinically, the next step was to look for any inflammatory reaction.
# The following parameters were used as indices of inflammatory reaction:
# 2. Alkaline phosphatase (ALP)
# 6. In the next series of trials, the joints of 6 horses were injected with 1 ml of PG only to see whether the solvent was the major cause of the inflammatory reaction.
# 7. The main series of trials was then devised to compare the inflammatory reaction of the radiocarpal joint to the product (100 mg DPPC in 1 mlPG) with the reactions to other agents commonly injected into that joint in the normal course of clinical practice.
# The agents selected for comparison were
# 1. A standard clinical (1 ml) dose of prilocaine--a local anaesthetic.
# 2. A standard clinical dose of hyaluromic acid (Hyartil)™ (1 ml) a joint lubricant.
# [2] = cited from earlier work
# phospholipases = conditions: cited from earlier work
# [3] = Retention of radio-labelled DPPC in the joint; assay type: in vivo, horse
# Protocol: 4. More quantitative tests were undertaken in a further 4 horses administered radio-labelled 50 mg DPPC in 1 ml. The solution was injected into one contraleteral joint and the horse was sacrificed 2-10 days later when the cartilage was excised and synovial fluid collected for radio-assay.
# [4] = Miscibility and physical state of phospholipid in propylene glycol; assay type: physicochemical; conditions: all concentrations / any proportion
compound,measurement,setting,value
"CC(O)CO (centres unmarked) [PG, propylene glycol]",solvent as the major cause of the inflammatory reaction,[1],This proved to be the case
same,inflammatory reaction relative to hyaluronic acid,[2]; mammalian joints and other articulations,somewhat less severe
"CCCCCCCCCCCCCCCC(=O)OC[C@@H](COP(=O)([O-])OCC[N+](C)(C)C)OC(=O)CCCCCCCCCCCCCCC [D-enantiomeric alpha-DPPC, alpha-dipalmitoyl phosphatidylcholine]",metabolism by endogenous phospholipases,phospholipases,cannot break down
"CCCCCCCCCCCCCCCC(=O)OC[C@H](COP(=O)([O-])OCC[N+](C)(C)C)OC(=O)CCCCCCCCCCCCCCC [L-enantiomeric alpha-DPPC, alpha-dipalmitoyl phosphatidylcholine]",metabolism by endogenous phospholipases,phospholipases,capable of metabolising
"CCCCCCCCCCCCCCCC(=O)OC[C@H](COP(=O)([O-])OCC[N+](C)(C)C)OC(=O)CCCCCCCCCCCCCCC [DPPC, Dipalmitoyl phosphatidylcholine]",retention of DPPC in the joint,[3]; conclusion,retained in the joint for long enough to enable lubrication to be maintained by monthly or fortnightly irrigation
same,time the joint would remain lubricated after an injection,[3]; inferred from half-lives,about one month
same,miscibility with propylene glycol,[4],totally miscible
hyaluronic acid,inflammatory reaction in animal tissues,[2]; in vivo,appreciable inflammatory reaction
